Experimental findings from US20220380341A1, “INHIBITORS OF HIV-1 NEF FOR THE TREATMENT OF HIV DISEASE” (priority 2018, published 2022) are described below.

pKd: −log10 of the molar value. Where “and” joins values, the source holds several entries; their conditions need not be identical. Identical values can stand only once. Like-named read-outs stand apart in the source and are kept apart here.

For one series, the system named is HIV-1NL4-3. Briefly: HIV-1 infectivity assay in TZM-bl reporter cell line (LTR-luciferase, 48 h). It is filed as cell-based. Particulars: for inhibition at 1 µM: Human immunodeficiency virus 1, TZM-bl. Here is the method: (§1) In particular, the tables show antiretroviral activity as percent inhibition of HIV-1 infectivity at 1 μM. In brief, this assay uses the TZM-bl reporter cell line, which carries a stable copy of the HIV-1 LTR coupled to luciferase. Cells are infected with HIV-1NL4-3 in the presence and absence of each compound, and luciferase activity is measured 48 h later. This assay measures early events in the HIV-1 life cycle, including viral entry, reverse transcription, nuclear entry and integration, and viral transcription. All assays include control cells infected with Nef-defective HIV-1, which replicates at 30-50% of wild-type in this system. Results are normalized to percent inhibition relative to DMSO-treated control cells infected with wild-type HIV-1 (0% inhibition) and DMSO-treated cells infected with Nef-defective HIV-1 (100% of the Nef-dependent effect)—see column 3. In addition, cell viability is measured in the TZM-bl cell line in the presence of each test compound and in the absence of HIV-1 infection, using the Cell Titer Blue cell viability assay (Promega; column 4).

For another series, the system named is TZM-bl cell line. It is filed as cell-based. The note with it: 1 μM. On the procedure:
as §1

Another series deals with HIV-1 NefNL4-3 (Human immunodeficiency virus type 1 group M subtype B, UniProt P03406, A33V/T15A/T51N/V11I). Briefly: Surface plasmon resonance binding to recombinant full-length Nef (NL4-3). The note with it: for T, minutes (residence time): 2-step induced fit, T = 1/koff2; for RU30/RUNef (extent of binding): response units at 30 μM relative to Nef immobilized on the SPR chip.

[1] abbreviates: Table 1, TZM-bl cells, 1 μM, 48 h, 100% = Nef-defective HIV-1.
[2] abbreviates: Table 1, uninfected TZM-bl cells, Cell Titer Blue.
Where [3] appears, read: 1.0 μM, TZM-bl reporter cell line, Table 4, read-out: % Infectivity Inhibition.
Where [4] appears, read: 48 h, Table 1, TZM-bl cells, 1 μM, 48 h, 100% = Nef-defective HIV-1, read-out: HIV-1 Infectivity % Inhibition Norm. to Δ-Nef @ 1 μM.
The mark [5] stands for this setting: KD, M, Table 4, SPR fit 2-step induced fit, KD = koff/kon × koff2/(koff2 + kon2).
Setting [6] is: Nef NL4-3 Binding, SPR 1:1 or 2-site fitting KD2, Table 1, 2-site fit, second component.
Where [7] appears, read: Nef NL4-3 Binding, SPR 2-state fitting KD, Table 1, 2-step induced-fit model.
[8] abbreviates: read-out: Nef NL4-3 Binding, SPR 1:1 or 2-site fitting KD2, Table 1, 2-site fit, second component.

“1-(1H-1,3-benzodiazol-2-yl)-4-[2-(4-fluorophenyl)ethyl]-3-(1-{[2-(1H-pyrrol-1-yl)phenyl]methyl}piperidin-4-yl)-1H-pyrazol-5-ol [Compound I-805]”: in the series with HIV-1NL4-3 (setting [1]), the “HIV-1 Infectivity % Inhibition Norm. to Δ-Nef @ 1 μM” value is recorded as 33.9%. For the same molecule, in the series on TZM-bl cell line (setting [2]), the “Percent Viability @ 1 μM (TZM-bl cells)” value is 93.7%. Further, the pKd at HIV-1 NefNL4-3 (Table 1, 1:1 Langmuir fit where the KD2 cell says '1 to 1 fitting', else 2-site fit, read-out: Nef NL4-3 Binding, SPR 1:1 or 2-site fitting KD1) was 6.22.

“2-{4-[1-(1H-1,3-benzodiazol-2-yl)-4-[2-(4-fluorophenyl)ethyl]-5-hydroxy-1H-pyrazol-3-yl]piperidine-1-carbonyl}benzene-1,3,5-triol [Compound I-729]”: in the series on HIV-1NL4-3 (setting [1]), the “HIV-1 Infectivity % Inhibition Norm. to Δ-Nef @ 1 μM” value amounted to 57.2%. Besides, the “Percent Viability @ 1 μM (TZM-bl cells)” value in the series on TZM-bl cell line (setting [2]) worked out at 102.4%. The “Nef NL4-3 Binding, SPR 1:1 or 2-site fitting KD1” value on HIV-1 NefNL4-3 (Table 1, 1:1 Langmuir fit where the KD2 cell says '1 to 1 fitting', else 2-site fit) is “No Interaction”.

For the molecule `CC(C)(C)OC(=O)N1CCC[C@H]1c1nn(-c2nc3ccccc3[nH]2)c(O)c1CCc1ccc(F)cc1` (stereo in doubt) [Compound I-205, tert-butyl 2-[1-(1H-1,3-benzodiazol-2-yl)-4-[2-(4-fluorophenyl)ethyl]-5-hydroxy-1H-pyrazol-3-yl]pyrrolidine-1-carboxylate], the inhibition at 1 µM in the series on HIV-1NL4-3 (setting [3]) and in the series on HIV-1NL4-3 (setting [4]) was 14.3% each time. The “% Cell Viability” value in the series with TZM-bl cell line (human) came out at 95.6%. Further, the “Percent Viability @ 1 μM (TZM-bl cells)” value in the series with TZM-bl cell line (human) came out at 95.6%. For the same molecule, the pKd was 5.96 on HIV-1 NefNL4-3, 6.68 on HIV-1 NefNL4-3 (setting [5]), 5.96 on HIV-1 NefNL4-3 (setting [6]) and 6.68 on HIV-1 NefNL4-3 (setting [7]). In addition, the “T, minutes (residence time)” value at HIV-1 NefNL4-3 (Table 4) is recorded as 9.98E + 01 minutes. The “RU30/RUNef (extent of binding)” value at HIV-1 NefNL4-3 was 5.81E- 03.

`Oc1c(CCc2ccc(F)cc2)c(-c2ccc(C(F)(F)F)cc2)nn1-c1nc2ccccc2[nH]1` [Compound I-106, 1-(1H-1,3-benzodiazol-2-yl)-4-[2-(4-fluorophenyl)ethyl]-3-[4-(trifluoromethyl)phenyl]-1H-pyrazol-5-ol]: the inhibition at 1 µM in the series on HIV-1NL4-3 (setting [4]) stood at 98.2%. In addition, the “Percent Viability @ 1 μM (TZM-bl cells)” value with TZM-bl cell line (human) was 84.5%. In addition, the pKd at HIV-1 NefNL4-3 was 4.69; at HIV-1 NefNL4-3 (setting [6]), 5.49.

`Oc1c(CCc2ccc(F)cc2)c(C2CCOCC2)nn1-c1nc2ccccc2[nH]1` [Compound I-114, 1-(1H-1,3-benzodiazol-2-yl)-4-[2-(4-fluorophenyl)ethyl]-3-(oxan-4-yl)-1H-pyrazol-5-ol]: in the series on HIV-1NL4-3 (setting [4]), the inhibition at 1 µM was determined as 78.2%. Besides, in the series on TZM-bl cell line (human), the “Percent Viability @ 1 μM (TZM-bl cells)” value turned out to be 99.5%. Further, the pKd was 5.75 and 5.93 at HIV-1 NefNL4-3; 5.36 on HIV-1 NefNL4-3 (setting [6]); 5.25 at HIV-1 NefNL4-3 (setting [7]).

As for `Oc1c(CCc2ccc(F)cc2)c(-c2cncc(Br)c2)nn1-c1nc2ccccc2[nH]1` [Compound I-118, 1-(1H-1,3-benzodiazol-2-yl)-3-(5-bromopyridin-3-yl)-4-[2-(4-fluorophenyl)ethyl]-1H-pyrazol-5-ol], the inhibition at 1 µM in the series on HIV-1NL4-3 (setting [4]) was 101%. Besides, the “Percent Viability @ 1 μM (TZM-bl cells)” value with TZM-bl cell line (human) was found to be 81.6%. In addition, the pKd at HIV-1 NefNL4-3 was 7.02; at HIV-1 NefNL4-3 (setting [7]) it was 9.67; on HIV-1 NefNL4-3 (setting [8]), 4.77.

Consider `Oc1c(CCc2ccc(F)cc2)c(-c2cccnc2)nn1-c1nc2ccccc2[nH]1` [Compound I-121, 1-(1H-1,3-benzodiazol-2-yl)-4-[2-(4-fluorophenyl)ethyl]-3-(pyridin-3-yl)-1H-pyrazol-5-ol], for which the inhibition at 1 µM with HIV-1NL4-3 (setting [3]) and with HIV-1NL4-3 (setting [4]) was 29.6% throughout. In the series with TZM-bl cell line (human), the “% Cell Viability” value is recorded as 97.8%. The “Percent Viability @ 1 μM (TZM-bl cells)” value in the series with TZM-bl cell line (human) stood at 97.8%. The pKd on HIV-1 NefNL4-3 is 10.42; at HIV-1 NefNL4-3 (setting [5]) it was 6.32; at HIV-1 NefNL4-3 (setting [7]) it was 6.32; at HIV-1 NefNL4-3 (setting [8]) it was 5.58. At HIV-1 NefNL4-3 (Table 4), the “T, minutes (residence time)” value is given as 2.58E + 01 minutes. Besides, on HIV-1 NefNL4-3, the “RU30/RUNef (extent of binding)” value was 7.40E- 03.
